# Laboratory results from patent publication US20180186755A1, “LYSYL OXIDASE-LIKE 2 INHIBITORS AND USES THEREOF” (PharmAkea, Inc., priority 2015, published 2018).
# Structures can show the parent of a compound that is named as a salt.
# Target: T1, human LOXL2 (Homo sapiens, UniProt Q9Y4K0)
# T1 construct: expressed in transfected cells; 10-20x concentrated conditioned media used as the enzyme source
# T1 sequence (Q9Y4K0 26-774): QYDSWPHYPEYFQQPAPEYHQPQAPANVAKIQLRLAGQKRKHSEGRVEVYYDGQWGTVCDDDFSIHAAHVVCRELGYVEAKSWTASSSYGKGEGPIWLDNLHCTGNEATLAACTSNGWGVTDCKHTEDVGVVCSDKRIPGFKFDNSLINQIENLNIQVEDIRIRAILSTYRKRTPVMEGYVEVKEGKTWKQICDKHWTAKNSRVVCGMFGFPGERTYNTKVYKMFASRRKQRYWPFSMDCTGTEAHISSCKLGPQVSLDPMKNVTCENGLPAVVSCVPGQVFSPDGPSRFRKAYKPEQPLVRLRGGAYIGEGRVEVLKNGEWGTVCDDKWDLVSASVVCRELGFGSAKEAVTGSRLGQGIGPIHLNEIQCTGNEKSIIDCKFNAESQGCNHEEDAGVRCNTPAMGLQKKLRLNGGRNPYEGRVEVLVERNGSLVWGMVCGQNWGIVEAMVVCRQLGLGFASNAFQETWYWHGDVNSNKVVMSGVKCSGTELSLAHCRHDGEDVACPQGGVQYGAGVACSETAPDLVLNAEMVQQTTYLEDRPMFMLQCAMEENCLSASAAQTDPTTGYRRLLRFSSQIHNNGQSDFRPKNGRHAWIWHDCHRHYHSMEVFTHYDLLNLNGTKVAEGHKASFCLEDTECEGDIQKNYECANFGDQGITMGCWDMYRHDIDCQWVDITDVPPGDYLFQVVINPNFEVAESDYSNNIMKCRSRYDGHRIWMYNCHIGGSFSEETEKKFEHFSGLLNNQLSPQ
# Experiment: Human LOXL2 amine oxidase activity assay (Amplex Red fluorescence)
# Type: biochemical
# Conditions: concentrated conditioned media from CHO cells stably expressing human LOXL2; 2 h at 37° C. preincubation; DAP substrate
# Method: Example B-1: Human LOXL2 Amine Oxidase Activity Assay
# LOXL2 amine oxidase activity is evaluated by measuring Amplex Red fluorescence using 10-20× concentrated conditioned media from CHO cells stably expressing human LOXL2.
# To assay for amine oxidase activity, 10 μL of the concentrated conditioned media is incubated with 2 μL of test compound in DMSO and 73 μL Assay Buffer (50 mM Borate Buffer, pH8) for 2 h at 37° C. After the 2 h incubation, 5 ul of 10 mM 1,5-Diaminopentane (DAP) diluted in Assay Buffer and 10 μl of Amplex Red Mix (8.5 μl Assay Buffer+0.5 μl of 10 mM Amplex Red+1 μl of 500 U/ml Horseradish Peroxidase) are added and the plate mixed and immediately placed on the FlexStaion for fluorescence measurements. Fluorescence is read in kinetic mode every 2 min for 1 hour at excitation=544 and emission=590. The amine oxidase activity is calculated from the slope of the linear portion of the curve.
row,IC50,SMILES
1,< 100 nM,"NCc1cc(Oc2cccc(C(=O)N3C[C@@H](O)[C@H](F)C3)c2)ncn1 (racemic) [Compound 1-11, Racemic-trans-(3-((6-(aminomethyl)pyrimidin-4-yl)oxy)phenyl)(3-fluoro-4-hydroxypyrrolidin-1-yl)methanone hydrochloride]"
2,< 100 nM,"NCc1cc(OCc2cccc(C(=O)N3CCCC(O)(C(F)(F)F)C3)c2)ncn1 (racemic) [Compound 1-35, Racemic-(3-(((6-(aminomethyl)pyrimidin-4-yl)oxy)methyl)phenyl)(3-hydroxy-3-(trifluoromethyl)piperidin-1-yl)methanone]"
3,< 100 nM,"CN1CC(CNC(=O)c2cccc(COc3cc(CN)ncn3)c2)OC1=O (racemic) [Compound 1-36, Racemic-3-(((6-(aminomethyl)pyrimidin-4-yl)oxy)methyl)-N-((3-methyl-2-oxooxazolidin-5-yl)methyl)benzamide]"
4,100 to 1000 nM,"CC(Oc1cc(CN)ncn1)c1cccc(C(=O)Nc2ccccc2)c1 (racemic) [Compound 1-95, Racemic-3-(1-((6-(aminomethyl)pyrimidin-4-yl)oxy)ethyl)-N-phenylbenzamide]"
5,< 100 nM,"NCc1cc(Oc2cccc(Oc3ccccc3)c2)ncn1 [Compound 1-2, (6-(3-Phenoxyphenoxy)pyrimidin-4-yl)methanamine hydrochloride]"
6,< 100 nM,"NCc1cc(Oc2cccc(C(=O)Nc3ccccc3)c2)ncn1 [Compound 1-3, 3-((6-(Aminomethyl)pyrimidin-4-yl)oxy)-N-phenylbenzamide hydrochloride]"
7,< 100 nM,"NCc1cc(Oc2cccc(C(=O)Nc3ccc(C(=O)O)cc3)c2)ncn1 [Compound 1-4, 4-(3-((6-(Aminomethyl)pyrimidin-4-yl)oxy)benzamido)benzoic acid hydrochloride]"
8,< 100 nM,"NCc1cc(Oc2cccc(C(=O)NCc3ccc(C(=O)O)cc3)c2)ncn1 [Compound 1-5, 4-((3-((6-(Aminomethyl)pyrimidin-4-yl)oxy)benzamido)methyl)benzoic Acid Hydrochloride]"
9,< 100 nM,"NCc1cc(Oc2cccc(C(=O)NCc3cc4ccccc4s3)c2)ncn1 [Compound 1-6, 3-((6-(Aminomethyl)pyrimidin-4-yl)oxy)-N-(benzo[b]thiophen-2-ylmethyl)benzamide hydrochloride]"
10,100 to 1000 nM,"NCc1cc(Oc2cccc(C(=O)NCCC(=O)O)c2)ncn1 [Compound 1-7, 3-(3-((6-(Aminomethyl)pyrimidin-4-yl)oxy)benzamido)propanoic Acid Hydrochloride]"
11,100 to 1000 nM,"NCc1cc(Oc2cccc(C(=O)NCCCC(=O)O)c2)ncn1 [Compound 1-8, 4-(3-((6-(Aminomethyl)pyrimidin-4-yl)oxy)benzamido)butanoic Acid Hydrochloride]"
12,< 100 nM,"NCc1cc(Oc2cccc(C(=O)NCCO)c2)ncn1 [Compound 1-9, 3-((6-(Aminomethyl)pyrimidin-4-yl)oxy)-N-(2-hydroxyethyl)benzamide hydrochloride]"
13,< 100 nM,"NCc1cc(Oc2cccc(C(=O)N3CC[C@H](O)C3)c2)ncn1 [Compound 1-10, (S)-(3-((6-(Aminomethyl)pyrimidin-4-yl)oxy)phenyl)(3-hydroxypyrrolidin-1-yl)methanone hydrochloride]"
14,< 100 nM,"CS(=O)(=O)CCNC(=O)c1cccc(Oc2cc(CN)ncn2)c1 [Compound 1-12, 3-((6-(Aminomethyl)pyrimidin-4-yl)oxy)-N-(2-(methylsulfonyl)ethyl)benzamide hydrochloride]"
15,< 100 nM,"NCc1cc(Oc2cccc(C(=O)NCCS(N)(=O)=O)c2)ncn1 [Compound 1-13, 3-((6-(Aminomethyl)pyrimidin-4-yl)oxy)-N-(2-sulfamoylethyl)benzamide hydrochloride]"
16,100 to 1000 nM,"NCc1cc(Oc2cccc3c2CCC(=O)N3CC(=O)O)ncn1 [Compound 1-14, 2-(5-((6-(Aminomethyl)pyrimidin-4-yl)oxy)-2-oxo-3,4-dihydroquinolin-1(2H)-yl)acetic Acid Hydrochloride]"
17,< 100 nM,"NCc1cc(Oc2cccc3c2CCC(=O)N3CCO)ncn1 [Compound 1-15, (5-((6-(Aminomethyl)pyrimidin-4-yl)oxy)-1-(2-hydroxyethyl)-3,4-dihydroquinolin-2(1H)-one hydrochloride]"
18,< 100 nM,"COc1ccc(CN2C(=O)CCc3c(Oc4cc(CN)ncn4)cccc32)cn1 [Compound 1-16, 5-((6-(Aminomethyl)pyrimidin-4-yl)oxy)-1-((6-methoxypyridin-3-yl)methyl)-3,4-dihydroquinolin-2(1H)-one acetate]"

row,IC50,SMILES
1,< 100 nM,"NCc1cc(Oc2ccc3cc[nH]c3c2)ncn1 [Compound 1-17, (6-((1H-Indol-6-yl)oxy)pyrimidin-4-yl)methanamine]"
2,< 100 nM,"NCc1cc(Oc2ccc3[nH]ccc3c2)ncn1 [Compound 1-18, (6-((1H-Indol-5-yl)oxy)pyrimidin-4-yl)methanamine trifluoroacetate]"
3,< 100 nM,"NCc1cc(Oc2cccc3[nH]ccc23)ncn1 [Compound 1-19, (6-((1H-Indol-4-yl)oxy)pyrimidin-4-yl)methanamine]"
4,< 100 nM,"CCn1ccc2c(Oc3cc(CN)ncn3)cccc21 [Compound 1-20, (6-((1-Ethyl-1H-indol-4-yl)oxy)pyrimidin-4-yl)methanamine]"
5,< 100 nM,"COC(=O)Cn1ccc2c(Oc3cc(CN)ncn3)cccc21 [Compound 1-21, Methyl 2-(4-((6-(aminomethyl)pyrimidin-4-yl)oxy)-1H-indol-1-yl)acetate]"
6,< 100 nM,"NCc1cc(Oc2cccc3c2ccn3CC(=O)O)ncn1 [Compound 1-22, 2-(4-((6-(Aminomethyl)pyrimidin-4-yl)oxy)-1H-indol-1-yl)acetic acid]"
7,100 to 1000 nM,"NCc1cc(Oc2cccc3c2ccn3CC(=O)N2CCCCC2)ncn1 [Compound 1-23, 2-(4-((6-(Aminomethyl)pyrimidin-4-yl)oxy)-1H-indol-1-yl)-1-(piperidin-1-yl)ethan-1-one]"
8,< 100 nM,"CN(C(=O)Cn1ccc2c(Oc3cc(CN)ncn3)cccc21)c1ccccc1 [Compound 1-24, 2-(4-((6-(Aminomethyl)pyrimidin-4-yl)oxy)-1H-indol-1-yl)-N-methyl-N-phenylacetamide]"
9,< 100 nM,"CS(=O)(=O)CCn1ccc2c(Oc3cc(CN)ncn3)cccc21 [Compound 1-25, (6-((1-(2-(Methylsulfonyl)ethyl)-1H-indol-4-yl)oxy)pyrimidin-4-yl)methanamine]"
10,< 100 nM,"NCc1cc(Oc2cccc3c2ccn3Cc2ccccc2)ncn1 [Compound 1-26, (6-((1-Benzyl-1H-indol-4-yl)oxy)pyrimidin-4-yl)methanamine]"
11,< 100 nM,"COC(=O)c1cccc(Cn2ccc3c(Oc4cc(CN)ncn4)cccc32)c1 [Compound 1-27, Methyl 3-((4-((6-(aminomethyl)pyrimidin-4-yl)oxy)-1H-indol-1-yl)methyl)benzoate]"
12,< 100 nM,"NCc1cc(Oc2cccc3c2ccn3Cc2cccc(C(=O)O)c2)ncn1 [Compound 1-28, 3-((4-((6-(Aminomethyl)pyrimidin-4-yl)oxy)-1H-indol-1-yl)methyl)benzoic acid]"
13,< 100 nM,"COc1ccc(Cn2ccc3cc(Oc4cc(CN)ncn4)ccc32)cn1 [Compound 1-29, (6-((1-((6-Methoxypyridin-3-yl)methyl)-1H-indol-5-yl)oxy)pyrimidin-4-yl)methanamine]"
14,< 100 nM,"COc1ccc(Cn2c(C)cc3c(Oc4cc(CN)ncn4)cccc32)cn1 [Compound 1-30, (6-((1-((6-Methoxypyridin-3-yl)methyl)-2-methyl-1H-indol-4-yl)oxy)pyrimidin-4-yl)methanamine]"
15,< 100 nM,"COc1ccc(Cn2cc(C)c3c(Oc4cc(CN)ncn4)cccc32)cn1 [Compound 1-31, (6-((1-((6-Methoxypyridin-3-yl)methyl)-3-methyl-1H-indol-4-yl)oxy)pyrimidin-4-yl)methanamine]"
16,< 100 nM,"Cn1cc(-n2ccc3c(Oc4cc(CN)ncn4)cccc32)cn1 [Compound 1-32, (6-((1-(1-Methyl-1H-pyrazol-4-yl)-1H-indol-4-yl)oxy)pyrimidin-4-yl)methanamine]"
17,< 100 nM,"CN(C)C(=O)c1cccc(COc2cc(CN)ncn2)c1 [Compound 1-33, 3-(((6-(Aminomethyl)pyrimidin-4-yl)oxy)methyl)-N,N-dimethylbenzamide]"

row,SMILES,IC50
1,"NCc1cc(Oc2ccc(F)cc2)ncn1 [Compound 1-1, (6-(4-Fluorophenoxy)pyrimidin-4-yl)methanamine trifluoroacetate]",< 100 nM
